# Entries after “also recorded” stand apart in the source; their conditions may differ.
# Key:
# [1] = test system: JeKo-1 human mantle cell lymphoma (MCL) subcutaneous xenograft; assay: JeKo-1 human MCL subcutaneous xenograft model, Bcl-2 inhibitor with BTK inhibitor; type: in vivo, NCG mice; settings: for TGI (%): day 21
# Procedure: JeKo-1 cells were maintained as suspension cell cultures at 37° C. in a 5% CO2 atmosphere. Five to six-week-old female NCG mice were purchased from Gempharmatech of Information Technology Center. All animals were maintained under specific pathogen free (SPF) “full barrier” condition with free access to food and water. […] Mice were fed with complete granulated feed with Co60 radiosterilization (Beijing Ke Ao Xie Li Feed Co., Ltd.). All experiments were carried out in accordance with BeiGene's IACUC.
# Re-suspended cells were placed on ice prior to inoculation. […] Each animal was injected subcutaneously with 1×10^7 cells in 200 μL of cell suspension in the right front flank via a 26-gauge needle. After implantation, primary tumor volume was measured in two dimensions using a caliper.
# Transplanted animals were randomized into 8 groups with 10 mice per group on day 0 according to transplantation sequence and body weight. […] Treatments were administered by oral gavage (p.o.) in a volume of 10 mL/kg body weight. Body weight was assessed immediately before dosing and volume dosed was adjusted accordingly.
# Individual body weight was recorded twice weekly, with mice being monitored daily for clinical signs of toxicity for the duration of the study. Mice were euthanized using carbon dioxide when their tumor volume reached 2,000 mm^3, the tumor was ulcerated, or body weight loss exceeded 20%.
# Tumor volume (TV) was calculated using the formula: TV=0.5×(a×b^2) where a and b are the long and short diameters of the tumor, respectively. […] (treated t=treated tumor volume at time t, vehicle t=vehicle tumor volume at time t)
# [2] = test system: patients with R/R B-cell malignancies; assay: phase 1 clinical study: efficacy (response, ALC, SPD); type: in vivo, human
# Procedure: A phase 1 study (dose escalation and safety expansion) to determine safety, tolerability, maximum tolerated dose ([…]), and recommended phase 2 dose (RP2D) of Compound 1 in patients with R/R B-cell malignancies was conducted. (Table 6-1A).
# Part 1 Monotherapy Ramp-Up Schedule and Dose Finding • 1) Cohort 1A: Cohort 1A consists of patients with relapsed/refractory B-cell non-Hodgkin lymphoma (R/R B-cell NHL) excluding mantle cell lymphoma (MCL). These patients are expected to be at low risk of tumor lysis syndrome (low TLS risk), and are treated with a short ramp-up schedule reaching target dose on Day 3. Patients in this cohort receive escalating doses of Compound 1 monotherapy: 40 mg, 80 mg, 160 mg, 320 mg, and 640 mg (unless adjusted by Safety Monitoring Committee [SMC] recommendation). • 2) Cohort 1B is opened, when ≥1 tolerable dose level of Cohort 1A was determined. It consists of patients with low-tumor-burden R/R CLL/SLL. This cohort pursues dose finding, including evaluation of both ramp-up schedule and target dose. Patients increase the ramp-up dose weekly until the target dose for the cohort is reached. The ramp-up steps is 1 mg, 2 mg, 5 mg, 10 mg, 20 mg, 40 mg, 80 mg, 160 mg, 320 mg, and 640 mg (unless adjusted by SMC recommendation). […]. • 3) Cohort 1C: This Cohort consists of patients with high-tumor-burden R/R chronic lymphocytic leukemia/small lymphocytic lymphoma (R/R CLL/SLL). This cohort will not be dosed until the RP2D for Cohort 1B is established. The objective of this cohort is to confirm, in patients with high-tumor-burden CLL/SLL, the safety of the monotherapy ramp-up schedule and RP2D established in patients with low-tumor-burden CLL/SLL. • 4) Cohort 1D: This Cohort consists of patients with R/R MCL. This cohort will not be dosed until the RP2D for Cohort 1B is established. The objective of this cohort is to confirm, in patients with R/R MCL, the safety of the monotherapy ramp-up schedule and RP2D established in patients with low tumor-burden CLL/SLL. • Cohort 1D′: This Cohort consists of patients with R/R MCL. And, the target dosage are 160 and 320 mg. • 5) Cohort 1E: This Cohort consists of patients with R/R waldenstrom macroglobulinemia (R/R WM). This cohort will not be dosed until the RP2D for Cohort 1B is established. The objective of this cohort is to confirm, in patients with R/R WM, the safety of the monotherapy ramp-up schedule and RP2D established in patients with low tumor-burden CLL/SLL.
# The study also includes dose escalation and expansion cohorts for the combination of Compound 1 and Bruton tyrosine kinase (BTK) inhibitor Zanubrutinib in patients with selected B-cell malignancy, such as CLL/SLL and mantle cell lymphoma (MCL). (Table 6-2A). Patients in the combination therapy cohorts receive Zanubrutinib 320 mg daily (160 mg twice a day [BID] or 320 mg once a day [QD]) beginning 8-12 weeks before Compound 1 is introduced. And, the corresponding dose-escalation and expansion are conducted in Part 3 and Part 4):
# Dose finding is pursued in Patients with R/R CLL/SLL or R/R MCL who are Bel-2-inhibitor naive and have not progressed on a BTK inhibitor, including evaluation of ramp-up schedule and target dose of Compound 1 when used in combination with Zanubrutinib. The Compound 1 dose vary but the Zanubrutinib dose is fixed at 320 mg/day (160 mg twice daily or 320 mg once daily). The ramp-up dose increases weekly until the target dose for the cohort is reached. The ramp-up steps for Compound 1 are 1 mg, 2 mg, 5 mg, 10 mg, 20 mg, 40 mg, 80 mg, 160 mg, 320 mg, and 640 mg (unless adjusted by SMC recommendation).
# In all Cohorts of the phase 1 study, Compound 1 is orally administrated once daily (QD). […]
compound,measurement,setting,value
"CC(C)c1ccccc1[C@@H]1CCCN1C1CC2(CCN(c3ccc(C(=O)NS(=O)(=O)c4ccc(NCC5CCC(C)(O)CC5)c([N+](=O)[O-])c4)c(Oc4cnc5[nH]ccc5c4)c3)CC2)C1 (stereo partly drawn) [Compound 1, 2-((1H-pyrrolo[2,3-b]pyridin-5-yl)oxy)-N-((4-((((1r,4r)-4-hydroxy-4-methylcyclohexyl)methyl)amino)-3-nitrophenyl)sulfonyl)-4-(2-((S)-2-(2-isopropylphenyl)pyrrolidin-1-yl)-7-azaspiro[3.5]nonan-7-yl)benzamide]",Mean TV (D 21) (mm^3 ± SEM),[1]; 5 mpk p.o. QD,1293.3 ± 100.0 mm^3
same,Mean TV (D 21) (mm^3 ± SEM),[1]; 15 mpk p.o. QD,929.5 ± 73.6 mm^3
same,Mean TV (D 21) (mm^3 ± SEM),[1]; 50 mpk p.o. QD,927.5 ± 100.6 mm^3
same,TGI (%),"[1]; 5 mpk p.o. QD, 5 mg/kg",29%
same,TGI (%),"[1]; 15 mpk p.o. QD, 15 mg/kg",49%
same,TGI (%),"[1]; 50 mpk p.o. QD, 50 mg/kg",49%
same,early response in CLL,"[2]; CLL/SLL monotherapy, 36-patient data, 80-mg dose level, del (17p) CLL",1 of 4 patients with CLL reached first response assessment and achieved partial response
same,patients achieving a response,"[2]; NHL, monotherapy, 36-patient data, about 5 months of treatment duration, including 1 CR",2 patients
same,patients achieving partial response with lymphocytosis (PR-L) or better,"[2]; monotherapy, R/R CLL/SLL, four of 6 patients, at either 80 or 160 mg",67%
same,patients responded,"[2]; monotherapy, R/R NHL, two of 20 patients, 1 PR at 160 mg and 1 CR at 320 mg",10%
same,patients with minor response,"[2]; monotherapy, R/R WM, one of 2 patients, at 80 mg",50%
same,reduction in SPD from baseline,"[2]; monotherapy, patients with R/R NHL",significant reduction in SPD form baseline were seen in most patients; also recorded: significant reduction in SPD from baseline were seen in most patients
same,reduction in absolute lymphocyte count (ALC),"[2]; patients with CLL during ramp-up, monotherapy and combination therapy, seen at dose levels as low as 1 mg",significant reduction in absolute lymphocyte count (ALC) was noted among all patients with CLL during ramp-up
same,blood MRD (minimal residual disease) negativity,"[2]; patients with CLL, monotherapy or combination with Zanubrutinib",negativity was observed in 160 mg cohorts after 6 months treatment but not in 40 mg and 80 mg cohorts
